Laboratory results published in patent publication US11345694B2, “Antibacterial compounds” (DISCUVA LTD., priority 2017, dated 2022).
Values after ≈ are worked out from the molar mass of the structure shown.

What was measured:
[1] = system: E. coli NCTC 13441 (UPEC); test: MIC broth microdilution; format: cell-based, Escherichia coli; settings: for MIC: Escherichia coli, NCTC13441
How it was run: (§1)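 Read-out is visible growth: the MIC is the lowest compound concentration that prevents it after incubating 20-24 hours at 37° C in air. Compounds span 0.39-200 μM final (two-fold steps, up to 2% DMSO) in cation-adjusted Müller-Hinton broth, following CLSI guidelines for planktonic bacteria.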

[2] = system: Acinetobacter baumannii ATCC 17978 (AB); test: MIC broth microdilution; format: cell-based; settings: for MIC: ATCC17978
How it was run: as §1

[3] = system: Enterobacter cloacae DSM 30054 (Ed); test: MIC broth microdilution; format: cell-based; settings: for MIC: DSM30054
How it was run: (§2)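 Growth inhibition read after 20-24 hour incubation at 37° C in ambient atmosphere; MIC is the lowest compound concentration with no growth. Planktonic bacteria in cation-adjusted Müller-Hinton broth were exposed to two-fold dilutions (0.39-200 μM final; ≤2% DMSO final) per CLSI guidelines.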

[4] = system: Escherichia coli K12 (EC); test: MIC broth microdilution; format: cell-based
How it was run: as §1

[5] = system: Klebsiella pneumoniae ATCC 10031 (KP2); test: MIC broth microdilution; format: cell-based; settings: for MIC: ATCC10031
How it was run: as §2

[6] = system: Pseudomonas aeruginosa ATCC 33359 (PA); test: MIC broth microdilution; format: cell-based; settings: for MIC: ATCC33359
How it was run: as §1

[7] = system: Salmonella typhimurium XNAA5 (St); test: MIC broth microdilution; format: cell-based; settings: for MIC: Salmonella enterica
How it was run: as §1

[8] = system: Serratia marcescens SL1344 (Sm); test: MIC broth microdilution; format: cell-based
How it was run: as §1

[9] = system: Staphylococcus aureus ATCC 35556 (SA); test: MIC broth microdilution; format: cell-based; settings: for MIC: ATCC35556
How it was run: as §1

[10] = system: K. pneumoniae ATCC 700603 (KP3); test: MIC broth microdilution; format: cell-based, Klebsiella pneumoniae; settings: for MIC: Klebsiella pneumoniae, ATCC700603
How it was run: as §2

[11] = system: K. pneumoniae H151440671 (KP10); test: MIC broth microdilution; format: cell-based, Klebsiella pneumoniae; settings: for MIC: Klebsiella pneumoniae
How it was run: as §2

[12] = system: K. pneumoniae H154020667 (KP6); test: MIC broth microdilution; format: cell-based, Klebsiella pneumoniae; settings: for MIC: Klebsiella pneumoniae
How it was run: as §2

[13] = system: K. pneumoniae H154300688 (KP9); test: MIC broth microdilution; format: cell-based, Klebsiella pneumoniae; settings: for MIC: Klebsiella pneumoniae
How it was run: as §2

[14] = system: K. pneumoniae H154600588 (KP8); test: MIC broth microdilution; format: cell-based, Klebsiella pneumoniae; settings: for MIC: Klebsiella pneumoniae
How it was run: as §2

[15] = system: K. pneumoniae H154640784 (KP7); test: MIC broth microdilution; format: cell-based, Klebsiella pneumoniae; settings: for MIC: Klebsiella pneumoniae
How it was run: as §2

[16] = system: K. pneumoniae H154680676 (KP5); test: MIC broth microdilution; format: cell-based, Klebsiella pneumoniae; settings: for MIC: Klebsiella pneumoniae
How it was run: as §2

[17] = system: K. pneumoniae NCTC 13438 (KP1); test: MIC broth microdilution; format: cell-based, Klebsiella pneumoniae; settings: for MIC: Klebsiella pneumoniae, NCTC13438
How it was run: as §2

[18] = system: human hepatocarcinoma cell line ATCC HB-8065 (HepG2); test: Human cell viability (CellTiter-Glo); format: cell-based; settings: Homo sapiens; HepG2 cells, 24 h incubation, CellTiter-Glo luminescence, 0.2-100 μM; read-out: IC50 values against the HepG2 cell line
How it was run: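 Cytotoxicity was read as CellTiter-Glo luminescence after 24 h compound exposure at 37° C., 5% CO2. Final concentrations spanned 0.2-100 μM in two-fold steps, in 1% FBS MEM with 1% DMSO, on cells plated a day earlier at 20,000/well. IC50 came from 4-parameter logistic regression.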

Structure (SMILES)	MIC [1]	MIC [2]	MIC [3]	MIC [4]	MIC [5]	MIC [6]	MIC [7]	MIC [8]	MIC [9]	MIC [10]	MIC [11]	MIC [12]	MIC [13]	MIC [14]	MIC [15]	MIC [16]	MIC [17]	IC50 [18]	also measured
Cc1cc(-c2[nH]c(N)nc2-c2ccc3c(c2)CCO3)ccn1 [Example 3, 4-(2,3-Dihydrobenzofuran-5-yl)-5-(2-methylpyridin-4-yl)-1H-imidazol-2-amine]	≤ 1 µM	> 100 µM	≤ 1 µM	≤ 1 µM	≤ 1 µM	> 100 µM	≤ 1 µM	1 to 10 µM (≈ 0.292 to 2.92 µg/mL)	> 100 µM	1 to 10 µM (≈ 0.292 to 2.92 µg/mL)	1 to 10 µM (≈ 0.292 to 2.92 µg/mL)	1 to 10 µM (≈ 0.292 to 2.92 µg/mL)	1 to 10 µM (≈ 0.292 to 2.92 µg/mL)	1 to 10 µM (≈ 0.292 to 2.92 µg/mL)	1 to 10 µM (≈ 0.292 to 2.92 µg/mL)	1 to 10 µM (≈ 0.292 to 2.92 µg/mL)	1 to 10 µM (≈ 0.292 to 2.92 µg/mL)	> 100 µM	
Nc1cc(-c2[nH]c(N)nc2-c2ccc(OCc3ccc(F)cc3)cc2)ccn1 [Example 7, 4-(2-Amino-4-(4-((4-fluorobenzyl)oxy)phenyl)-1H-imidazol-5-yl)pyridin-2-amine]	≤ 1 µM	> 100 µM	≤ 1 µM	≤ 1 µM	≤ 1 µM	> 100 µM	≤ 1 µM	≤ 1 µM	10 to 100 µM (≈ 3.75 to 37.5 µg/mL)	1 to 10 µM (≈ 0.375 to 3.75 µg/mL)	≤ 1 µM	≤ 1 µM	≤ 1 µM	1 to 10 µM (≈ 0.375 to 3.75 µg/mL)	1 to 10 µM (≈ 0.375 to 3.75 µg/mL)	≤ 1 µM	1 to 10 µM (≈ 0.375 to 3.75 µg/mL)	25 to 100 µM	
CNc1cc(-c2[nH]c(N)nc2-c2ccc3c(c2)CCO3)ccn1 [Example 9, 4-(2-Amino-4-(2,3-dihydrobenzofuran-5-yl)-1H-imidazol-5-yl)-N-methylpyridin-2-amine]	≤ 1 µM	> 100 µM	≤ 1 µM	≤ 1 µM	≤ 1 µM	> 100 µM	≤ 1 µM	10 to 100 µM (≈ 3.07 to 30.7 µg/mL)	> 100 µM	1 to 10 µM (≈ 0.307 to 3.07 µg/mL)	≤ 1 µM	≤ 1 µM	1 to 10 µM (≈ 0.307 to 3.07 µg/mL)	1 to 10 µM (≈ 0.307 to 3.07 µg/mL)	1 to 10 µM (≈ 0.307 to 3.07 µg/mL)	1 to 10 µM (≈ 0.307 to 3.07 µg/mL)	1 to 10 µM (≈ 0.307 to 3.07 µg/mL)	> 100 µM	
Cc1cc(-c2nc(N)[nH]c2-c2ccc(OCc3ccc(F)cc3)c(F)c2)ccn1 [Example 16, 5-(3-Fluoro-4-((4-fluorobenzyl)oxy)phenyl)-4-(2-methylpyridin-4-yl)-1H-imidazol-2-amine]	≤ 1 µM	> 100 µM	≤ 1 µM	≤ 1 µM	≤ 1 µM	> 100 µM	≤ 1 µM	≤ 1 µM	> 100 µM	≤ 1 µM	≤ 1 µM	≤ 1 µM	≤ 1 µM	≤ 1 µM	≤ 1 µM	≤ 1 µM	≤ 1 µM	25 to 100 µM	
Cc1cc(-c2[nH]c(N)nc2-c2ccc(OCc3ccc(F)cc3)cc2)ccn1 [Example 19, 4-(4-((4-Fluorobenzyl)oxy)phenyl)-5-(2-methylpyridin-4-yl)-1H-imidazol-2-amine]	≤ 1 µM	10 to 100 µM (≈ 3.74 to 37.4 µg/mL)	≤ 1 µM	≤ 1 µM	≤ 1 µM	> 100 µM	≤ 1 µM	≤ 1 µM	10 to 100 µM (≈ 3.74 to 37.4 µg/mL)	≤ 1 µM	≤ 1 µM	≤ 1 µM	≤ 1 µM	1 to 10 µM (≈ 0.374 to 3.74 µg/mL)	1 to 10 µM (≈ 0.374 to 3.74 µg/mL)	≤ 1 µM	≤ 1 µM	25 to 100 µM	
Cc1cc(-c2[nH]c(N)nc2-c2ccc3c(c2)OCCO3)ccn1 [Example 23, 4-(2,3-Dihydrobenzo[b][1,4]dioxin-6-yl)-5-(2-methylpyridin-4-yl)-1H-imidazol-2-amine]	≤ 1 µM	> 100 µM	≤ 1 µM	≤ 1 µM	≤ 1 µM	> 100 µM	≤ 1 µM	1 to 10 µM (≈ 0.308 to 3.08 µg/mL)	> 100 µM	1 to 10 µM (≈ 0.308 to 3.08 µg/mL)	≤ 1 µM	≤ 1 µM	≤ 1 µM	1 to 10 µM (≈ 0.308 to 3.08 µg/mL)	1 to 10 µM (≈ 0.308 to 3.08 µg/mL)	≤ 1 µM	1 to 10 µM (≈ 0.308 to 3.08 µg/mL)	> 100 µM	
Cc1cc(-c2[nH]c(N)nc2-c2ccc3c(c2)NCCO3)ccn1 [Example 27, 4-(3,4-Dihydro-2H-benzo[b][1,4]oxazin-6-yl)-5-(2-methylpyridin-4-yl)-1H-imidazol-2-amine]	≤ 1 µM	> 100 µM	≤ 1 µM	≤ 1 µM	≤ 1 µM	> 100 µM	≤ 1 µM	1 to 10 µM (≈ 0.307 to 3.07 µg/mL)	> 100 µM	1 to 10 µM (≈ 0.307 to 3.07 µg/mL)	≤ 1 µM	≤ 1 µM	1 to 10 µM (≈ 0.307 to 3.07 µg/mL)	1 to 10 µM (≈ 0.307 to 3.07 µg/mL)	1 to 10 µM (≈ 0.307 to 3.07 µg/mL)	≤ 1 µM	1 to 10 µM (≈ 0.307 to 3.07 µg/mL)	> 100 µM	
C[C@@H](O)[C@H]1C(=O)N2C(C(=O)O)=C(SCCN=CN)C[C@H]12 [IPM]																			MIC UPEC [1]: A (an MIC (μM) of less or equal to 1 is assigned the letter A); MIC AB [2]: A (an MIC (μM) of less or equal to 1 is assigned the letter A); MIC Ecl [3]: B (a MIC of from 1 to 10 is assigned the letter B); MIC EC [4]: A (an MIC (μM) of less or equal to 1 is assigned the letter A); MIC KP2 [5]: B (a MIC of from 1 to 10 is assigned the letter B); MIC PA [6]: B (a MIC of from 1 to 10 is assigned the letter B); MIC St [7]: B (a MIC of from 1 to 10 is assigned the letter B); MIC Sm [8]: B (a MIC of from 1 to 10 is assigned the letter B); MIC SA [9]: A (an MIC (μM) of less or equal to 1 is assigned the letter A); MIC KP3 [10]: B (a MIC of from 1 to 10 is assigned the letter B); MIC KP10 [11]: C (a MIC of from 10 to 100 is assigned the letter C); MIC KP6 [12]: B (a MIC of from 1 to 10 is assigned the letter B); MIC KP9 [13]: D (a MIC of over 100 is assigned the letter D); MIC KP8 [14]: D (a MIC of over 100 is assigned the letter D); MIC KP7 [15]: C (a MIC of from 10 to 100 is assigned the letter C); MIC KP5 [16]: B (a MIC of from 1 to 10 is assigned the letter B); MIC KP1 [17]: C (a MIC of from 10 to 100 is assigned the letter C)
